Laboratory results: PubChem BioAssay (NCI)
Where “and” joins values, the source holds several entries; their conditions need not be identical. Equal values may be shown once.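 Protocol summary: plate cells (96-well), add compound at 5 concentrations, incubate 48 h, interpolate endpoints linearly. GI50 is the concentration that inhibits growth by half. TGI denotes the concentration required for complete inhibition of growth.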

What was measured:
Assay in all cases: NCI-60 cell line screen, 48 h
[1] = tested on: MOLT-4 leukemia
[2] = tested on: MDA-MB-435
[3] = tested on: COLO 205 colon
[4] = tested on: MDA-N
[5] = tested on: UACC-62 melanoma
[6] = tested on: SK-MEL-2 melanoma
[7] = tested on: MCF7 breast
[8] = tested on: SF-295 CNS
[9] = tested on: ACHN renal
[10] = tested on: T-47D breast
[11] = tested on: CAKI-1 renal

SMILES	TGI [1]	TGI [2]	TGI [3]	TGI [4]	TGI [5]	TGI [6]	TGI [7]	TGI [8]	TGI [9]	TGI [10]	TGI [11]	GI50 [2]	GI50 [4]	GI50 [10]
CC(=NNC(=S)Nc1ccccc1C)c1cccc(C(C)=NNC(=S)Nc2ccccc2C)n1	> 100 µM	> 100 µM	> 100 µM	> 100 µM	> 100 µM	> 100 µM	> 100 µM	> 100 µM	59.8 µM	> 100 µM	> 100 µM			
COc1c(O)cc(/C=C/c2cc(O)cc3c2[C@@]2(C(=O)O3)c3c(O)cc(O)cc3OC2c2cccc(O)c2)cc1O (stereo partly drawn)	11 µM	> 100 µM	> 100 µM	> 100 µM	72 µM	> 100 µM	> 100 µM		> 100 µM	> 100 µM	> 100 µM			
COc1ccc(CSCc2cc(OC)c(OC)c(OC)c2)cc1	> 100 µM	> 81.3 µM	> 100 µM	> 100 µM	> 100 µM	> 100 µM	> 100 µM	> 100 µM	> 100 µM	> 100 µM	> 100 µM			
Fc1ccc(C(OCCN2CCC3CCC(C2)N3CCCc2ccccc2)c2ccc(F)cc2)cc1 (stereo not drawn)	7.86 µM	7.46 µM	2.67 µM	11.3 µM	18.2 µM	14 µM	13 µM	8.45 µM	18.2 µM	4.79 µM	18.3 µM			
CCC(=O)N(c1ccccc1)C(C)CN1CCC(O)(c2ccccc2)CC1 (stereo not drawn)	> 100 µM	> 100 µM	> 100 µM	> 100 µM	> 100 µM	> 100 µM	> 100 µM	> 100 µM	> 100 µM	> 100 µM	> 100 µM			
O=C(Nc1ccccc1)N1CCNC1=S	> 100 µM	> 100 µM	> 100 µM	> 100 µM	> 100 µM	> 100 µM	> 100 µM	> 100 µM	> 100 µM	> 100 µM	> 100 µM			
COC(=O)/C=C/c1cc(OC)c2c(c1)C(C(=O)OC)C(c1ccc(OC)c(OC)c1)O2 (stereo not drawn)	> 100 µM	49 µM	> 100 µM and 17.6 µM	> 100 µM	> 100 µM	> 100 µM	> 100 µM	> 100 µM	> 100 µM	> 100 µM	> 100 µM	19.8 µM	30.6 µM	39.9 µM and 4.16 µM
CN1CC=C(OP(=O)(NCc2ccccc2)N(CCCl)CCCl)CC1 (stereo not drawn)	> 100 µM	> 100 µM	> 100 µM	> 100 µM	> 100 µM	> 100 µM	> 100 µM	> 100 µM	> 100 µM	> 100 µM	> 100 µM			
Cc1ccc2c(c1)C(C1Cc3c(C)cccc3C1=O)OC2=O (stereo not drawn)	> 100 µM	> 100 µM	> 100 µM	> 100 µM	> 100 µM	> 100 µM	> 100 µM	> 100 µM	> 100 µM	> 100 µM	> 100 µM			
CCOC(=O)CCc1c(C(=O)OCC)[nH]c(/C=C2/NC(=O)C(C)=C2CC)c1C	13.1 µM	19.7 µM	33.2 µM	26.6 µM	19.7 µM	40.9 µM	17.7 µM	30.6 µM	60.9 µM	9.59 µM	80.2 µM			
CC(=O)NNC=N/C(C#N)=C(\N)C#N	> 100 µM	> 100 µM	> 100 µM	> 100 µM	> 100 µM	> 100 µM	> 100 µM	> 100 µM	> 100 µM	> 100 µM	> 100 µM			
O=C(/C=C/c1ccc(O)c(O)c1)NC(CO)C(=O)O (stereo not drawn)	> 100 µM	> 100 µM	> 100 µM	> 100 µM	> 100 µM	> 100 µM	> 100 µM	> 100 µM	> 100 µM	> 100 µM	> 100 µM			
Cc1sc2ncnc(NCCc3ccccc3)c2c1C	63.8 µM	34.6 µM	24.4 µM	23.8 µM	24.6 µM	31.2 µM	28.6 µM	36.9 µM	69.2 µM	56.6 µM	56.7 µM			
O=C(CNC(=O)OCc1ccccc1)NCCCCC(NC(=O)OCc1ccccc1)C(=O)O (stereo not drawn)	> 100 µM	> 100 µM	> 100 µM	> 100 µM	> 100 µM	> 100 µM	> 100 µM	> 100 µM	> 100 µM	> 100 µM	> 100 µM			
COc1ccc(NC=O)c(C(O)CCNC(C)=O)c1 (stereo not drawn)	> 100 µM	> 100 µM	> 100 µM	> 100 µM	> 100 µM	> 100 µM	> 100 µM	> 100 µM	> 100 µM	> 100 µM	> 100 µM			
N[C@@H]1C[C@H](N)c2c(Cl)sc(Cl)c21	> 100 µM	> 100 µM	> 100 µM	> 100 µM	> 100 µM	> 100 µM	> 100 µM	> 100 µM	> 100 µM	> 100 µM	> 100 µM			
